# Target: T1, Tyrosine-protein phosphatase non-receptor type 1 (Homo sapiens, UniProt P18031)
# T1 sequence (P18031 whole entry): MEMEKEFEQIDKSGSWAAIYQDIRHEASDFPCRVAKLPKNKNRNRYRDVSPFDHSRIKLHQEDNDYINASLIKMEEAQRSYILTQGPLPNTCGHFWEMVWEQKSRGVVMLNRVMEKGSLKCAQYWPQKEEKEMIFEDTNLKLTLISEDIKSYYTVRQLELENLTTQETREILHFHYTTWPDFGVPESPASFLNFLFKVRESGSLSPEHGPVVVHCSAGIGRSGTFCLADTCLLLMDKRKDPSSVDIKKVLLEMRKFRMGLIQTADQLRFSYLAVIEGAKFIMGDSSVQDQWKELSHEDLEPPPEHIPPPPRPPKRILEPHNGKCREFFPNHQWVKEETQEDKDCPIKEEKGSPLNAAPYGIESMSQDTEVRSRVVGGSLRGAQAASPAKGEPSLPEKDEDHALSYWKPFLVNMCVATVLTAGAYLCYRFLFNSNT
# Assay: Inhibition of Homo sapiens (human) PTP1B expressed in Escherichia coli using PNPP as substrate
row,IC50 [nM],Structure (SMILES)
1,1400,NC(=O)[C@H](Cc1ccc(C2=CC(=O)NS2(=O)=O)cc1)NC(=O)[C@H](Cc1ccccc1)NC(=O)Cc1ccc(C(F)(F)F)cc1
2,6000,CCCCCNC(=O)[C@H](Cc1ccc(C2=CS(=O)(=O)NC2=O)cc1)NC(=O)[C@H](Cc1ccccc1)NC(=O)Cc1ccc(OC)cc1
3,1500,CCCCCNC(=O)[C@H](Cc1ccc(N2CC(=O)NS2(=O)=O)cc1)NC(=O)[C@H](Cc1ccccc1)NC(=O)Cc1ccc(OC)cc1
4,1200,CCCCCNC(=O)[C@H](Cc1ccc(C2=CC(=O)NS2(=O)=O)cc1)NC(=O)[C@H](Cc1ccccc1)NC(=O)Cc1ccc(OC)cc1
5,70000,CC(C)(C)OC(=O)N[C@@H](Cc1ccc(C2CC(=O)NS2(=O)=O)cc1)C(N)=O (stereo partly specified)
6,100000,CC(=O)N[C@@H](Cc1ccc(C2CC(=O)NS2(=O)=O)cc1)C(N)=O (stereo partly specified)
7,100000,NC(=O)[C@@H](N)Cc1ccc(C2CC(=O)NS2(=O)=O)cc1 (stereo partly specified)
8,340,NC(=O)[C@H](Cc1ccc(C2CC(=O)NS2(=O)=O)cc1)NC(=O)[C@H](Cc1ccccc1)NC(=O)CCc1ccccc1 (stereo partly specified)
9,170,NC(=O)[C@H](Cc1ccc(C2CC(=O)NS2(=O)=O)cc1)NC(=O)[C@H](Cc1ccccc1)NC(=O)Cc1ccc(C(F)(F)F)cc1 (stereo partly specified)
10,170,COc1ccc(CC(=O)N[C@@H](Cc2ccccc2)C(=O)N[C@@H](Cc2ccc(C3CC(=O)NS3(=O)=O)cc2)C(N)=O)cc1 (stereo partly specified)
11,170,NC(=O)[C@H](Cc1ccc(C2CC(=O)NS2(=O)=O)cc1)NC(=O)[C@H](Cc1ccccc1)NC(=O)Cc1ccc(O)cc1 (stereo partly specified)
12,180,NC(=O)[C@H](Cc1ccc(C2CC(=O)NS2(=O)=O)cc1)NC(=O)[C@H](Cc1ccccc1)NC(=O)Cc1ccccc1 (stereo partly specified)
13,661,CC(=O)N[C@@H](Cc1ccccc1)C(=O)N[C@@H](Cc1ccc(C2CC(=O)NS2(=O)=O)cc1)C(N)=O (stereo partly specified)
14,100000,NC(=O)[C@H](Cc1ccc(C2CC(=O)NS2(=O)=O)cc1)NC(=O)[C@@H](N)Cc1ccccc1 (stereo partly specified)
15,2700,NC(=O)[C@H](Cc1ccc(C2=CC(=O)NS2(=O)=O)cc1)NC(=O)[C@H](Cc1ccccc1)NC(=O)CCc1ccccc1
16,1600,COc1ccc(CC(=O)N[C@@H](Cc2ccccc2)C(=O)N[C@@H](Cc2ccc(C3=CC(=O)NS3(=O)=O)cc2)C(N)=O)cc1
17,791,NC(=O)[C@H](Cc1ccc(C2=CC(=O)NS2(=O)=O)cc1)NC(=O)[C@H](Cc1ccccc1)NC(=O)Cc1ccc(O)cc1
18,1800,NC(=O)[C@H](Cc1ccc(C2=CC(=O)NS2(=O)=O)cc1)NC(=O)[C@H](Cc1ccccc1)NC(=O)c1ccccc1
19,100000,NC(=O)[C@H](Cc1ccc(C2=CC(=O)NS2(=O)=O)cc1)NC(=O)[C@@H](N)Cc1ccccc1
20,1000,NC(=O)[C@H](Cc1ccc(C2=CC(=O)NS2(=O)=O)cc1)NC(=O)[C@H](Cc1ccccc1)NC(=O)Cc1ccccc1
21,180,CC(=O)N[C@@H](Cc1ccccc1)C(=O)N[C@@H](Cc1ccc([C@@H]2CC(=O)NS2(=O)=O)cc1)C(N)=O
